{
  "source": "patent US20250368767A1",
  "about": "“POLYMER FOR INHIBITING SARS-COV-2 AND OTHER PATHOGENS” (FREIE UNIVERSITÄT BERLIN, priority 2022, published 2025)",
  "key": {"[1]": {"test": "zeta potential", "format": "physicochemical", "method": "Overall negative charge of the polymers owing to sulfate groups was confirmed by very high negative value of zeta potential (cf. Table 9). To check the morphology of P1 in aqueous solution, cryo-electron microscopy (cryo-EM) was performed. In accordance with the inventors' hypothesis, worm-like defined fibers having a length between approximately 150 nm and 215 nm were observed. Tomography of the sample was measured to calculate accurate length and width of the fibers."}, "[2]": {"system": "wild-type (WT) SARS-CoV-2", "format": "cell-based", "conditions": "plaque reduction assay"}},
  "data": [
    {"substance": "Heparin", "values": [
      {"measurement": "ξ potential (mV)", "setting": "[1]", "result": "−31.2 ± 3.9", "unit": "mV"},
      {"measurement": "IC50 (μg/mL) against SARS-CoV-2", "setting": "[2]", "result": "1383.0 ± 255.1", "unit": "µg/mL"},
      {"measurement": "IC50", "setting": "[2]; read-out: IC50 (μM) against SARS-CoV-2", "result": "92.3 ± 19.4", "unit": "µM"}
    ]}
  ]
}
